Consider 25 compounds from ChEMBL document CHEMBL4406842, “Synthesis and in vitro biological evaluation of novel derivatives of Flexicaulin A condensation with amino acid trifluoroacetate” (Eur J Med Chem, 2019).

The test system of one data set is A549. The experiment in a line: Antiproliferative activity against human A549 cells assessed as reduction in cell viability incubated for 72 hrs by SRB assay. The data set is classed as functional, cell-based. As to conditions: A549, 72 h. For orientation: The SRB assay estimates cell density from bound dye.
In another data set the test system is TE-1. The experiment in a line: Antiproliferative activity against human TE1 cells assessed as reduction in cell viability incubated for 72 hrs by SRB assay. The data set is classed as functional, cell-based. As to conditions: TE-1, 72 h.
Data set [1] can be described thus: Solubility of compound in water. Format: physicochemical. The conditions noted are these: buffer.
The next data set deals with MGC-803. Briefly: Antiproliferative activity against human MGC803 cells assessed as reduction in cell viability incubated for 72 hrs by SRB assay. Format: functional, cell-based. The conditions noted are these: MGC-803, 72 h.
For the next data set, the system named is MCF7. The experiment in a line: Antiproliferative activity against human MCF7 cells assessed as reduction in cell viability incubated for 72 hrs by SRB assay. The data set is classed as functional, cell-based. As to conditions: MCF7, 72 h.

On to `C=C1C(=O)[C@]23[C@H](OC(=O)[C@H]4CCCNC4)[C@H]1C[C@H](O)[C@H]2[C@]1(COC(C)=O)CCCC(C)(C)[C@H]1C[C@H]3OC.O=C(O)C(F)(F)F`, for which the IC50 with A549 worked out at 17200 nM; in the data set with TE-1, 6550 nM; in the data set on MGC-803, 6220 nM; in the data set on MCF7 it was 11500 nM. The solubility result in data set [1] is on record as “Soluble”.
For the compound `C=C1C(=O)[C@]23[C@H](OC(=O)[C@H](CCCNC(=O)OC(C)(C)C)NC(=O)OC(C)(C)C)[C@H]1C[C@H](O)[C@H]2[C@]1(COC(C)=O)CCCC(C)(C)[C@H]1C[C@H]3OC`, the 50% inhibitory concentration (IC50) in the data set with A549 was determined as 2990 nM; in the data set on TE-1, 1390 nM; with MGC-803 it was 3330 nM; in the data set on MCF7 it was 2150 nM. In data set [1], the solubility entry was “Insoluble”.
Turning to `C=C1C(=O)[C@]23[C@H](OC(=O)[C@@H](N)CC)[C@H]1C[C@H](O)[C@H]2[C@]1(COC(C)=O)CCCC(C)(C)[C@H]1C[C@H]3OC.O=C(O)C(F)(F)F`, the IC50 turned out to be 4420 nM in the data set with A549, 2570 nM in the data set with TE-1, 3880 nM with MGC-803 and 3750 nM in the data set on MCF7. Further, the solubility entry in data set [1] is listed as “Soluble”.
On the same counts, the results for `C=C1C(=O)[C@]23[C@H](OC(=O)[C@H](Cc4ccccc4)N(C)C(=O)OC(C)(C)C)[C@H]1C[C@H](O)[C@H]2[C@]1(COC(C)=O)CCCC(C)(C)[C@H]1C[C@H]3OC` are 3150 nM, 1160 nM, 1510 nM, 2460 nM and “Insoluble”.
On the same counts, the results for `C=C1C(=O)[C@]23[C@H](OC(=O)[C@@H](NC)C(C)C)[C@H]1C[C@H](O)[C@H]2[C@]1(COC(C)=O)CCCC(C)(C)[C@H]1C[C@H]3OC.O=C(O)C(F)(F)F` are 1890 nM, 1160 nM, 1640 nM, 3200 nM and “Soluble”.
Regarding `C=C1C(=O)[C@]23[C@H](OC(=O)[C@@H](N)CCc4ccccc4)[C@H]1C[C@H](O)[C@H]2[C@]1(COC(C)=O)CCCC(C)(C)[C@H]1C[C@H]3OC.O=C(O)C(F)(F)F`, the IC50 in the data set with A549 stood at 3350 nM; in the data set with TE-1, 2980 nM; in the data set with MGC-803 it was 1060 nM; with MCF7, 1810 nM. In addition, the solubility entry in data set [1] is recorded as “Soluble”.
Take `C=C1C(=O)[C@]23[C@H](OC(=O)CCCCCNC(=O)OC(C)(C)C)[C@H]1C[C@H](O)[C@H]2[C@]1(COC(C)=O)CCCC(C)(C)[C@H]1C[C@H]3OC`: the IC50 with A549 was 5410 nM; with TE-1, 1720 nM; in the data set with MGC-803, 3500 nM; in the data set on MCF7, 2840 nM. Further, the solubility result in data set [1] was “Insoluble”.
The corresponding values for `C=C1C(=O)[C@]23[C@H](OC(=O)[C@@H](N)CCCN)[C@H]1C[C@H](O)[C@H]2[C@]1(COC(C)=O)CCCC(C)(C)[C@H]1C[C@H]3OC.O=C(O)C(F)(F)F.O=C(O)C(F)(F)F` are 8040 nM, 2710 nM, 5280 nM, 6550 nM and “Soluble”.
As for `C=C1C(=O)[C@]23[C@H](OC(=O)[C@H]4CCCN(C(=O)OC(C)(C)C)C4)[C@H]1C[C@H](O)[C@H]2[C@]1(COC(C)=O)CCCC(C)(C)[C@H]1C[C@H]3OC`, the IC50 in the data set with A549 amounted to 3490 nM; in the data set with TE-1, 1650 nM; in the data set on MGC-803, 2550 nM; in the data set with MCF7, 2580 nM. In data set [1], the solubility entry was “Insoluble”.
As to `C=C1C(=O)[C@]23[C@H](OC(=O)CCCCCN)[C@H]1C[C@H](O)[C@H]2[C@]1(COC(C)=O)CCCC(C)(C)[C@H]1C[C@H]3OC.O=C(O)C(F)(F)F`, the concentration for half-maximal inhibition (IC50) came to 11400 nM in the data set on A549, 5360 nM in the data set with TE-1, 5140 nM with MGC-803 and 3680 nM in the data set on MCF7. Further, the solubility entry in data set [1] is listed as “Soluble”.
The corresponding values for `C=C1C(=O)[C@]23[C@H](OC(=O)[C@@H](NC(=O)OC(C)(C)C)C(C)C)[C@H]1C[C@H](O)[C@H]2[C@]1(COC(C)=O)CCCC(C)(C)[C@H]1C[C@H]3OC` are 3940 nM, 1680 nM, 2880 nM, 2730 nM and “Insoluble”.
Regarding `C=C1C(=O)[C@]23[C@H](OC(=O)CN(C)C(=O)OC(C)(C)C)[C@H]1C[C@H](O)[C@H]2[C@]1(COC(C)=O)CCCC(C)(C)[C@H]1C[C@H]3OC`, the half-inhibitory concentration (IC50) in the data set on A549 was determined as 5460 nM; in the data set on TE-1, 1450 nM; with MGC-803, 3940 nM; with MCF7, 3080 nM. The solubility entry in data set [1] was “Insoluble”.
The corresponding values for `C=C1C(=O)[C@]23[C@H](OC(=O)[C@@H]4CCCCN4C(=O)OC(C)(C)C)[C@H]1C[C@H](O)[C@H]2[C@]1(COC(C)=O)CCCC(C)(C)[C@H]1C[C@H]3OC` are 3570 nM, 1460 nM, 3000 nM, 2690 nM and “Insoluble”.
The corresponding values for `C=C1C(=O)[C@]23[C@H](OC(=O)[C@H](Cc4ccccc4)NC(=O)OC(C)(C)C)[C@H]1C[C@H](O)[C@H]2[C@]1(COC(C)=O)CCCC(C)(C)[C@H]1C[C@H]3OC` are 6220 nM, 2440 nM, 3220 nM, 3060 nM and “Insoluble”.
For the compound `C=C1C(=O)[C@]23[C@H](OC(=O)[C@@H](NC(=O)OC(C)(C)C)c4ccccc4)[C@H]1C[C@H](O)[C@H]2[C@]1(COC(C)=O)CCCC(C)(C)[C@H]1C[C@H]3OC`, the IC50 in the data set with A549 was 2940 nM; in the data set on TE-1, 870 nM; in the data set with MGC-803 it was 2210 nM; with MCF7 it was 1580 nM. Moreover, the solubility entry in data set [1] is “Insoluble”.
Turning to `C=C1C(=O)[C@]23[C@H](O)[C@H]1CC[C@H]2[C@@]12CO[C@]3(O)[C@@H](O)[C@@H]1C(C)(C)CC[C@@H]2O` [ORIDONIN], the IC50 with A549 was 13400 nM; in the data set on TE-1 it was 12700 nM; in the data set on MGC-803, 14100 nM; in the data set with MCF7, 22000 nM.
Turning to `C=C1C(=O)[C@]23[C@H](OC(=O)[C@H](C)NC(=O)OC(C)(C)C)[C@H]1C[C@H](O)[C@H]2[C@]1(COC(C)=O)CCCC(C)(C)[C@H]1C[C@H]3OC`, the concentration for half-maximal inhibition (IC50) with A549 amounted to 5630 nM; in the data set on TE-1, 1070 nM; with MGC-803, 2640 nM; in the data set with MCF7 it was 2360 nM. Further, the solubility entry in data set [1] was “Insoluble”.
On the same counts, the results for `C=C1C(=O)[C@]23[C@H](OC(=O)CCCCN)[C@H]1C[C@H](O)[C@H]2[C@]1(COC(C)=O)CCCC(C)(C)[C@H]1C[C@H]3OC.O=C(O)C(F)(F)F` are 1620 nM, 3160 nM, 7150 nM, 7890 nM and “Soluble”.
On the same counts, the results for `C=C1C(=O)[C@]23[C@H](OC(=O)[C@H](CCc4ccccc4)NC(=O)OC(C)(C)C)[C@H]1C[C@H](O)[C@H]2[C@]1(COC(C)=O)CCCC(C)(C)[C@H]1C[C@H]3OC` are 3720 nM, 1630 nM, 1730 nM, 2180 nM and “Insoluble”.
The corresponding values for `C=C1C(=O)[C@]23[C@H](OC(=O)[C@H](CC)NC(=O)OC(C)(C)C)[C@H]1C[C@H](O)[C@H]2[C@]1(COC(C)=O)CCCC(C)(C)[C@H]1C[C@H]3OC` are 4810 nM, 1740 nM, 4850 nM, 3090 nM and “Insoluble”.
`C=C1C(=O)[C@]23[C@H](OC(=O)[C@@H](N)Cc4ccccc4)[C@H]1C[C@H](O)[C@H]2[C@]1(COC(C)=O)CCCC(C)(C)[C@H]1C[C@H]3OC.O=C(O)C(F)(F)F`: the IC50 was 2710 nM in the data set on A549, 1880 nM with TE-1, 1000 nM in the data set on MGC-803 and 1010 nM with MCF7. Also, the solubility entry in data set [1] is on record as “Soluble”.
On the same counts, the results for `C=C1C(=O)[C@]23[C@H](OC(=O)[C@H](CCCCNC(=O)OC(C)(C)C)NC(=O)OC(C)(C)C)[C@H]1C[C@H](O)[C@H]2[C@]1(COC(C)=O)CCCC(C)(C)[C@H]1C[C@H]3OC` are 6460 nM, 2760 nM, 5430 nM, 4060 nM and “Insoluble”.
Turning to `C=C1C(=O)[C@]23[C@H](OC(=O)[C@H](C)N(C)C(=O)OC(C)(C)C)[C@H]1C[C@H](O)[C@H]2[C@]1(COC(C)=O)CCCC(C)(C)[C@H]1C[C@H]3OC`, the concentration for half-maximal inhibition (IC50) is 5410 nM with A549, 1040 nM with TE-1, 3290 nM in the data set with MGC-803 and 2050 nM in the data set on MCF7. Moreover, in data set [1], the solubility result is on record as “Insoluble”.
Consider `C=C1C(=O)[C@]23[C@H](O)[C@H]1C[C@H](O)[C@H]2[C@]1(COC(C)=O)CCCC(C)(C)[C@H]1C[C@H]3OC`, for which the IC50 with A549 came out at 1770 nM; in the data set on TE-1, 4400 nM; in the data set with MGC-803, 1110 nM; in the data set with MCF7, 1650 nM.
Turning to `C=C1C(=O)[C@]23[C@H](OC(=O)CNC(=O)OC(C)(C)C)[C@H]1C[C@H](O)[C@H]2[C@]1(COC(C)=O)CCCC(C)(C)[C@H]1C[C@H]3OC`, the IC50 in the data set with A549 worked out at 4240 nM; in the data set on TE-1, 1640 nM; in the data set on MGC-803, 5710 nM; in the data set on MCF7 it was 1700 nM. Moreover, the solubility result in data set [1] is reported as “Insoluble”.

As usually defined, the IC50 is the point on the concentration scale where inhibition reaches its midpoint.
